Results published in paper PMC5216056 (Nature Communications, 2017).
Where two headings read alike, the source gives them in different places.

Key:
[1] = for Pct donor / Pct membrane / Pct acceptor: PAMPA; for Pct membrane: compound found in membranes; for Pampa Peff: membrane permeation coefficient
[2] = system: AEA reuptake in HaCaT cells; assay: cells; assay type: cell-based, human; conditions: for AEA reuptake Efficacy (% inhibition) HaCaT cells: from dose-response; for IC50: read-out: AEA reuptake IC50 (95% CI) HaCaT cells; for inhibition at 10 µM: read-out: AEA reuptake % inhibition, effect at 10 µM, HaCaT cells; for inhibition at 10 µM / AEA reuptake % inhibition, effect at 10 µM, HaCaT cells: 10 µM (values marked *)
human NAPE-PLD = molecular target: T1, human NAPE-PLD (Homo sapiens, UniProt Q6IQ20); assay: NAPE-PLD inhibition; assay type: biochemical; conditions: for inhibition at 10 µM: read-out: NAPE-PLD % inhibition at 10 µM ± SD
T1 construct: Full length human cDNA NAPE-PLD was obtained from Natsuo Ueda; expressed in transfected cells; host or cells: HEK293T (transient), membrane fraction
T1 sequence (Q6IQ20 whole entry): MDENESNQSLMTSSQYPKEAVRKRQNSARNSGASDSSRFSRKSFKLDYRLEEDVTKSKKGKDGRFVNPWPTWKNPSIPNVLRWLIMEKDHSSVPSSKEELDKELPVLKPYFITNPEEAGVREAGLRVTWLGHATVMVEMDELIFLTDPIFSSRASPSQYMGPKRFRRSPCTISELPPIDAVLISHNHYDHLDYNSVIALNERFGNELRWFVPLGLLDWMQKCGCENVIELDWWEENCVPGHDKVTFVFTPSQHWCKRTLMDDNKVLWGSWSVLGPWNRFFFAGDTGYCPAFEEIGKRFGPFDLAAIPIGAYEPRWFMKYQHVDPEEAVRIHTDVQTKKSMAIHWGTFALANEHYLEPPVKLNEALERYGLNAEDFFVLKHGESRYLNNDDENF
Description: Full length human cDNA NAPE-PLD was obtained from Natsuo Ueda[58] and cloned into mammalian expression vector pcDNA3.1, containing a C-terminal Flag-tag and genes for ampicillin and neomycin resistance. All plasmids were grown in XL-10 Z-competent cells and prepped (Maxi Prep, Qiagen). Sequence analysis for the confirmation of the sequences was performed at the Leiden Genome Technology Centre.
HEK293T cells (source: Dutch Cancer Institute) were cultured at 37 °C and 7% CO2 in DMEM with glutamax, penicillin (100 μg ml^−1), streptomycin (100 μg ml^−1) and 10% New Born Calf Serum iron supplemented (Hyclone SH30072.03). Cells were passaged twice a week to appropriate confluence. Twenty-four hours before transfection 10^7 cells were seeded on a 15 cm dish. Two hours before transfection, the medium was refreshed. Transfection is performed with PEI in a ratio of 3:1 with human NAPE-PLD or Mock pcDNA3.1Neo, 20 μg per dish. Medium is refreshed after 24 h and cells are harvested after 72 h. Cell suspensions are centrifuged at 1,000g for 10 min, supernatant removed and pellets frozen at −80 °C until further use.
Cell pellets are re-suspended in lysis buffer 1: 20 mM Hepes, 2 mM DTT, 0.25 M sucrose, 1 mM MgCl2, 2.5 U ml^−1 benzonase and incubated 30 min on ice. The cytosolic fraction (supernatant) is separated from the membranes by ultra-centrifugation (32,000 rpm for 30 min 100,000g). The pellet is resuspended in buffer 2: 20 mM Hepes, 2 mM DTT (membrane fraction). All samples are stored at −80 °C. Enzyme concentrations are determined using a Bradford assay.
The membrane protein fraction from transient overexpression of NAPE-PLD in HEK293T cells was diluted to 0.4 mg ml^−1 in assay buffer: 50 mM Tris-HCl (pH 7.5), 0.02% Triton X-100, 150 mM NaCl (ref. [60]). […] Relevant concentrations of compounds are prepared in DMSO. The assay is performed in a dark Greiner 96-well plate, end volume 100 μl. The compound or DMSO is incubated with membrane protein lysate (final concentration 0.04 mg ml^−1) for 30 min at 37 °C. A sample without membrane protein lysate is incorporated for background subtraction. Then, substrate is added (final concentration 1 μM) and the measurement is started immediately on a TECAN infinite M1000 pro at 37 °C (excitation 485 nm, emission 535 nm), scanning every 2 min for 1 h.

mCB2R = mCB2R (Mus musculus, UniProt P47936); assay: biochemical; assay type: binding; set-up: from tissue; host or cells: spleen of male C57BL/6J mice
Sequence of mCB2R (P47936 whole entry): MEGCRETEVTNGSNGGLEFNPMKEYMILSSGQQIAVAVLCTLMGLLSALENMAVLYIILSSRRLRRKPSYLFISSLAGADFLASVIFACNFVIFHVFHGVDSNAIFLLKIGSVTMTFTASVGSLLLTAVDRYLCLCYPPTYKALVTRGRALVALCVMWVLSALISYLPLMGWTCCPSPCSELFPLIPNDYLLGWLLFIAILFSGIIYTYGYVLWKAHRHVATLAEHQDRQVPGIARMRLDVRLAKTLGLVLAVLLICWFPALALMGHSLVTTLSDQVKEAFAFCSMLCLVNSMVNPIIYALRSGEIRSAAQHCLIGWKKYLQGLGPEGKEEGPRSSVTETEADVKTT

GR (h) = molecular target: T2, GR (h) (Homo sapiens, UniProt P04150); assay: CEREP panel; assay type: binding; conditions: for inhibition at 10 µM: read-out: % inhibition GR (h)
T2 construct: CEREP (contract assay)
T2 sequence (P04150 1-777): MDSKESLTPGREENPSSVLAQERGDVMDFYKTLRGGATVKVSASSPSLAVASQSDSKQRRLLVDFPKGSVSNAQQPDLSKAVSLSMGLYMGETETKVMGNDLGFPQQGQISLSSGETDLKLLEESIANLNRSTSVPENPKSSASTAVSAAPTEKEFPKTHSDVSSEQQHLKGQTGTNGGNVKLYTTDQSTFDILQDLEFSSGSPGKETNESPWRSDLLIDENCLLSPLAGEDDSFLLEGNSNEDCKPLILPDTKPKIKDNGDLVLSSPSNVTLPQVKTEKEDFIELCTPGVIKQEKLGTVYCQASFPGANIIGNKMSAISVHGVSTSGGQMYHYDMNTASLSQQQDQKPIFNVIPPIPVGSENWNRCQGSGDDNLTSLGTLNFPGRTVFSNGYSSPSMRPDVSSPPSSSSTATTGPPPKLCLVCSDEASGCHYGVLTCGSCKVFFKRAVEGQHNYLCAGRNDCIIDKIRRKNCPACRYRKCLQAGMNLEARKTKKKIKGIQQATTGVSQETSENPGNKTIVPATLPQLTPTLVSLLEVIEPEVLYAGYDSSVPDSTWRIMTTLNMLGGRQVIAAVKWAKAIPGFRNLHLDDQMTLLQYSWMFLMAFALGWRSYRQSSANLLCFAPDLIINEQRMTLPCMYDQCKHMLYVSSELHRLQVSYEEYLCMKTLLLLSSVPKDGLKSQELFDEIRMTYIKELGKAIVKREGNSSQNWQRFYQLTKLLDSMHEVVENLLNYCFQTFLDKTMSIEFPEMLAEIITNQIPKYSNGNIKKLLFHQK

[3] = mouse spleen membranes, read-out: pKi ± SEM mCB2R (converted)

Compound | Pct donor [1] | Pct membrane [1] | Pampa Peff [1] | AEA reuptake Efficacy (% inhibition) HaCaT cells [2] | IC50 [2] | NAPE-PLD % inhibition at 10 µM ± SD (human NAPE-PLD) | CB2R Selectivity (binding, mouse) (mCB2R) | pKi ± SEM mCB2R (mCB2R; mouse spleen membranes) | inhibition at 10 µM ([2]; Homo sapiens, HaCaT) | IC50 ([2]; Homo sapiens, HaCaT) | inhibition at 10 µM (human NAPE-PLD) | Ki (mCB2R; [3]) | Pct acceptor [1] | AEA reuptake % inhibition, effect at 10 µM, HaCaT cells [2] | CB2R Selectivity (binding, mouse) (mCB2R; 10^(pKi CB2R-pKi CB1R)) | % inhibition GR (h) (GR (h); 10 µM) | Ki (mCB2R) | inhibition at 10 µM (GR (h); 10 µM) | inhibition at 10 µM (GR (h))
CN1CCCCC1Cn1cc(C(=O)c2cc([N+](=O)[O-])ccc2I)c2ccccc21 (racemic) [(rac)-AM1241] | 41.3% | 55.7% | 1.86±0.62 cm/s*10-6 | 80% | 4.01 µM | 29 ± 11% | 66 fold | 7.73 ± 0.25 |  |  |  |  |  |  |  |  |  |  | 
CCCCC/C=C\C/C=C\C/C=C\C/C=C\CCCC(=O)OC(CO)CO [2-AG, 2-arachidonoyl glycerol] |  |  |  |  |  |  |  |  | 60% | > 5 µM | -1 ± 12% | 0.0295 µM |  |  |  |  |  |  | 
CN1CCCC[C@@H]1Cn1cc(C(=O)c2cc([N+](=O)[O-])ccc2I)c2ccccc21 [(R)-AM1241] | 38.3% | 59.7% | 1.22 cm/s*10-6 |  | > 5 µM | 21 ± 5% |  | 7.59 ± 0.11 |  |  |  |  | 2.1% | 25% | 17 fold |  |  |  | 
CN1CCCC[C@H]1Cn1cc(C(=O)c2cc([N+](=O)[O-])ccc2I)c2ccccc21 [(S)-AM1241] | 34% | 64% | 1.41 cm/s*10-6 | 90% | 4.49 µM | 33 ± 7% |  | 6.74 ± 0.2 |  |  |  |  | 2.2% |  | 2 fold | 10% |  |  | 
Cc1c(C(=O)NN2CCCCC2)nn(-c2ccc(Cl)cc2Cl)c1-c1ccc(I)cc1 [AM251] |  |  |  |  |  | 10 ± 12% |  |  |  |  |  |  |  |  |  | 84% |  |  | 
COc1ccc(C(=O)c2c(C)n(CCN3CCOCC3)c3cc(I)ccc23)cc1 [AM630] | 35.4% | 64.3% | 0.2 cm/s*10-6 | 65% | 4.18 µM | -4 ± 11% |  | 7.66 ± 0.23 |  |  |  |  | 0.37% |  |  | 38% |  |  | 
CCCCC/C=C\C/C=C\C/C=C\C/C=C\CCCC(=O)NCCO [Anandamide, N-arachidonoylethanolamine] | 96.3% | 2.7% | 0.26 cm/s*10-6 | 86% |  |  |  |  |  | 0.27 µM | 17 ± 9% |  | 1.2% |  |  |  | 0.347 µM |  | 
CCCCCCC(C)(C)c1ccc([C@@H]2C[C@H](O)CC[C@H]2CCCO)c(O)c1 [CP55940] |  |  | 0 cm/s*10-6 |  |  |  |  |  | 13% | > 10 µM | 10 ± 8% | 0.000603 µM |  |  |  | 94% |  | 92% | 
Cc1ccc2c(c1)Cc1c(C(=O)NN3CCCCC3)nn(-c3ccc(Cl)cc3Cl)c1-2 [Gp-1a] | 29.7% | 70.3% | 0 cm/s*10-6 | 90% | 3.27 µM | 3 ± 5% |  | 7.68 ± 0.23 |  |  |  |  | 0% |  | 20 fold | 71% |  |  | 
CCCCCCC(C)(C)c1cc(OC)c([C@@H]2C=C(CO)[C@@H]3C[C@H]2C3(C)C)c(OC)c1 [HU308] | 23.1% | 74.3% | 2.53 cm/s*10-6 | 69% |  |  |  |  |  | 2.21 µM | 2 ± 7% |  | 2.8% |  |  |  | 0.0708 µM |  | 4%
CCCCCCC(C)(C)c1cc(OC)c(C2=C[C@H]3CC[C@]2(CO)C3(C)C)c(OC)c1 [HU910] | 42% | 57% | 0.45 cm/s*10-6 |  | > 10 µM | 8 ± 13% |  | 6.88 ± 0.17 |  |  |  |  | 1% | 38% |  | 4% |  |  | 
CCCn1c(C)c(C(=O)c2cccc3ccccc23)c2ccccc21 [JWH015] |  |  |  |  | > 5 µM | -4 ± 12% |  | 6.63 ± 0.21 |  |  |  |  |  | 64% |  | 36% |  |  | 
CCCC(C)(C)c1ccc2c(c1)OC(C)(C)[C@@H]1CC=C(C)C[C@@H]21 [JWH133] | 36.1% | 61.7% | 1.86 cm/s*10-6 |  | > 10 µM | 3 ± 4% | 40 fold | 7.69 ± 0.23 |  |  |  |  | 2.3% | 39% |  | 7% |  |  | 
Cc1c(C(=O)NN2CCCCC2)nn(-c2ccc(Cl)cc2Cl)c1-c1ccc(Cl)cc1 [SR141716A] | 25.2% | 74.3% | 0.27±0.11 cm/s*10-6 | 80% |  |  |  |  |  |  | 0% |  | 0.3% |  |  |  |  | 43% | 
Cc1c(C(=O)c2cccc3ccccc23)c2cccc3c2n1[C@H](CN1CCOCC1)CO3 [WIN55212-2] | 50.6% | 49% | 0.25±0.22 cm/s*10-6 |  | > 5 µM | 8 ± 6% |  | 7.28 ± 0.17 |  |  |  |  | 0.5% | 24% |  | 63% |  |  | 
SR144528 |  |  |  |  | > 10 µM | 8 ± 10% |  |  |  |  |  |  |  | 20% |  | 9% |  |  | 
